Results taken from PubChem BioAssay (NCI).
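In this assay, cells in 96-well plates receive the compound at five concentrations for 48 hours. Endpoints are linearly interpolated between the surrounding concentrations. GI50 = concentration required for 50% inhibition of growth. At the TGI there is no net growth.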

Key:
Assay in all cases: DTP human tumour cell line panel, 48 h
NCI-H460 lung = test system: NCI-H460 lung
SK-OV-3 ovarian = test system: SK-OV-3 ovarian
SNB-75 CNS = test system: SNB-75 CNS
NCI-H226 lung = test system: NCI-H226 lung
U251 CNS = test system: U251 CNS
DU-145 prostate = test system: DU-145 prostate
PC-3 prostate = test system: PC-3 prostate
SNB-19 CNS = test system: SNB-19 CNS
CAKI-1 renal = test system: CAKI-1 renal
UACC-62 melanoma = test system: UACC-62 melanoma

## COc1cc(/C=C2/Oc3c(OC)cccc3C2=O)ccc1O
NCI-H460 lung
  TGI: > 100 µM
SK-OV-3 ovarian
  TGI: > 100 µM
SNB-75 CNS
  TGI: > 100 µM
NCI-H226 lung
  TGI: > 100 µM
U251 CNS
  TGI: > 100 µM
DU-145 prostate
  TGI: > 100 µM
PC-3 prostate
  TGI: > 100 µM
SNB-19 CNS
  TGI: > 100 µM
CAKI-1 renal
  TGI: > 100 µM
UACC-62 melanoma
  TGI: > 100 µM

## CCOC(=O)c1csc(NC(=O)C(C)N2CCOCC2)n1 (configuration not stated)
NCI-H460 lung
  TGI: > 100 µM
SK-OV-3 ovarian
  TGI: > 100 µM
SNB-75 CNS
  TGI: > 100 µM
U251 CNS
  TGI: > 100 µM
DU-145 prostate
  TGI: > 100 µM
PC-3 prostate
  TGI: > 100 µM
SNB-19 CNS
  TGI: > 100 µM
CAKI-1 renal
  TGI: > 100 µM
UACC-62 melanoma
  TGI: > 100 µM

## CCN(CC)CCNc1ccc([N+](=O)[O-])c2sc3cc(Cl)ccc3c(=O)c12
SK-OV-3 ovarian
  GI50: 3.33 µM
  TGI: 96.5 µM
DU-145 prostate
  GI50: 7.68 µM
  TGI: 25.1 µM
PC-3 prostate
  GI50: 2.65 µM
  TGI: > 100 µM
SNB-19 CNS
  GI50: 2.77 µM
  TGI: > 100 µM
UACC-62 melanoma
  GI50: 3.11 µM
  TGI: > 100 µM

## CC(C)=CCC/C(C)=C/C=C/C(C)=C/C1C[C@@]2(C(O)O1)[C@H](CCCO)/C(=C(/C)C=O)CC[C@]2(C)O (some centres not stated)
NCI-H460 lung
  TGI: 25.5 µM
SNB-75 CNS
  TGI: 69.9 µM
NCI-H226 lung
  TGI: 40.9 µM
SNB-19 CNS
  TGI: 35.4 µM
CAKI-1 renal
  TGI: 25.6 µM

## C[n+]1c(-c2ccc(/C=N/NC(=O)C(=O)N/N=C/c3ccc(-c4cn5ccccc5[n+]4C)cc3)cc2)cn2ccccc21
NCI-H460 lung
  TGI: > 100 µM
SK-OV-3 ovarian
  TGI: > 100 µM
SNB-75 CNS
  TGI: > 100 µM
NCI-H226 lung
  TGI: > 100 µM
U251 CNS
  TGI: > 100 µM
DU-145 prostate
  TGI: > 100 µM
PC-3 prostate
  TGI: > 100 µM
SNB-19 CNS
  TGI: > 100 µM
CAKI-1 renal
  TGI: > 100 µM
UACC-62 melanoma
  TGI: > 100 µM

## c1cncc([O][Ge]([O]c2cccnc2)([O]c2cccnc2)[O]c2cccnc2)c1
NCI-H460 lung
  GI50: > 100 µM
  TGI: > 100 µM
SK-OV-3 ovarian
  GI50: > 100 µM
  TGI: > 100 µM
SNB-75 CNS
  GI50: > 100 µM
  TGI: > 100 µM
NCI-H226 lung
  GI50: > 100 µM
  TGI: > 100 µM
U251 CNS
  GI50: > 100 µM
  TGI: > 100 µM
SNB-19 CNS
  GI50: > 100 µM
  TGI: > 100 µM
CAKI-1 renal
  GI50: > 100 µM
  TGI: > 100 µM
UACC-62 melanoma
  GI50: > 100 µM
  TGI: > 100 µM

## C/C(=N\NC(=S)N1CCOCC1)c1nc2ncccc2[nH]1
NCI-H460 lung
  TGI: > 100 µM
SK-OV-3 ovarian
  TGI: > 100 µM
SNB-75 CNS
  TGI: 44.1 µM
NCI-H226 lung
  TGI: > 100 µM
U251 CNS
  TGI: 81.8 µM
DU-145 prostate
  TGI: > 100 µM
PC-3 prostate
  TGI: > 100 µM
SNB-19 CNS
  TGI: 84.6 µM
CAKI-1 renal
  TGI: > 100 µM
UACC-62 melanoma
  TGI: > 100 µM

## Cc1cc(Nc2ccc(Cl)cc2)nc(NCCCNc2ccnc3cc(Cl)ccc23)n1
SK-OV-3 ovarian
  GI50: 1.65 µM
  TGI: 3.01 µM
SNB-75 CNS
  GI50: 1.33 µM
  TGI: 2.6 µM
U251 CNS
  GI50: 1.5 µM
  TGI: 2.88 µM
DU-145 prostate
  GI50: 1.84 µM
  TGI: 3.35 µM
PC-3 prostate
  GI50: 1.65 µM
  TGI: 3.18 µM
CAKI-1 renal
  GI50: 1.53 µM
  TGI: 2.9 µM
UACC-62 melanoma
  GI50: 1.79 µM
  TGI: 3.58 µM

## O=C(O)/C=C/c1ccncc1
NCI-H460 lung
  TGI: > 100 µM
SK-OV-3 ovarian
  TGI: > 100 µM
SNB-75 CNS
  TGI: > 100 µM
NCI-H226 lung
  TGI: > 100 µM
U251 CNS
  TGI: 14 µM
SNB-19 CNS
  TGI: > 100 µM
CAKI-1 renal
  TGI: > 100 µM
UACC-62 melanoma
  TGI: > 100 µM
